Test results reported in US10822337B2, “TGF-β inhibitorC” (Rigel Pharmaceuticals, Inc., priority 2015, dated 2020).

Key:
[1] = test system: GDF8 signaling (GDF pSMAD, MPC11); test: AlphaScreen SureFire SMAD3 (p-Ser423/425) assay, inhibition of GDF8 signaling; format: cell-based; settings: Mus musculus, MPC-11, p-SMAD-3 (Ser423/425) in cell lysate after GDF8 stimulation
[2] = test system: TGF-β signaling (TGF-β pSMAD, MPC-11); test: AlphaScreen SureFire SMAD3 (p-Ser423/425) assay, inhibition of TGF-β signaling; format: cell-based; settings: Mus musculus, p-SMAD-3 (Ser423/425) in cell lysate after TGF-β stimulation
Summary of the method: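 Phosphorylation of endogenous SMAD-3 at Ser423/425 was quantified with an AlphaScreen SureFire assay. Cells were exposed to compound for about 10 minutes, stimulated with TGF-β, and lysed in 1× Lysis Buffer. Lysate (5 μL) was combined with Reaction/Activation buffer plus Acceptor beads for 2 hours, then Donor beads for 1½ hours, and read on a plate reader.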

COc1cccc(-c2nn3c(c2-c2ccc4nccnc4c2)OCC3)c1 [Compound 76, 6-(3-Methoxyphenyl)-7-(quinoxalin-6-yl)-2,3-dihydropyrazolo[5,1-b]oxazole] showed an IC50 [1] of 180 nM and an IC50 [2] of 649 nM.

Work on Fc1cccc(-c2nn3c(c2-c2ccc4[nH]ncc4c2)CCC3)c1 [Compound 77, 5-(2-(3-Fluorophenyl)-5,6-dihydro-4H-pyrrolo[1,2-b]pyrazol-3-yl)-1H-indazole] yielded an IC50 [1] of 336 nM and an IC50 [2] of 1340 nM.

Compound Fc1cccc(-c2nn3c(c2-c2ccc4cn[nH]c4c2)CCC3)c1 [Compound 78, 6-(2-(3-Fluorophenyl)-5,6-dihydro-4H-pyrrolo[1,2-b]pyrazol-3-yl)-1H-indazole] has an IC50 [1] of 812 nM and an IC50 [2] of 2300 nM.

For Cn1cnc2ccc(-c3c(-c4cccc(F)c4)nn4c3CCC4)cc21 [Compound 79, 6-(2-(3-Fluorophenyl)-5,6-dihydro-4H-pyrrolo[1,2-b]pyrazol-3-yl)-1-methyl-1H-benzo[d]imidazole], the IC50 [1] was 196 nM and the IC50 [2] was 417 nM.

Fc1cccc(-c2nn3c(c2-c2ccc4nccn4c2)CCC3)c1 [Compound 80, 6-(2-(3-Fluorophenyl)-5,6-dihydro-4H-pyrrolo[1,2-b]pyrazol-3-yl)imidazo[1,2-a]pyridine] was tested, and the IC50 [1] was 760 nM and the IC50 [2] was 2980 nM.

With Fc1cccc(-c2nn3c(c2-c2ccc4ncsc4c2)CCC3)c1 [Compound 81, 6-(2-(3-Fluorophenyl)-5,6-dihydro-4H-pyrrolo[1,2-b]pyrazol-3-yl)benzo[d]thiazole] the IC50 [1] was 375 nM and the IC50 [2] was 1870 nM.

Fc1cccc(-c2nn3c(c2-c2ccc4nccnc4c2)CCC3)c1 [Compound 82, 6-(2-(3-Fluorophenyl)-5,6-dihydro-4H-pyrrolo[1,2-b]pyrazol-3-yl)quinoxaline] gave an IC50 [1] of 330 nM and an IC50 [2] of 1950 nM.

For Fc1ccc(-c2nn3c(c2-c2ccc4[nH]ncc4c2)CCC3)cc1F [Compound 83, 5-(2-(3,4-Difluorophenyl)-5,6-dihydro-4H-pyrrolo[1,2-b]pyrazol-3-yl)-1H-indazole], the IC50 [1] was 70.4 nM and the IC50 [2] was 517 nM.

Compound Fc1ccc(-c2nn3c(c2-c2ccc4cn[nH]c4c2)CCC3)cc1F [Compound 84, 6-(2-(3,4-Difluorophenyl)-5,6-dihydro-4H-pyrrolo[1,2-b]pyrazol-3-yl)-1H-indazole] has an IC50 [1] of 326 nM and an IC50 [2] of 1610 nM.

For Cn1cnc2ccc(-c3c(-c4ccc(F)c(F)c4)nn4c3CCC4)cc21 [Compound 85, 6-(2-(3,4-Difluorophenyl)-5,6-dihydro-4H-pyrrolo[1,2-b]pyrazol-3-yl)-1-methyl-1H-benzo[d]imidazole], the IC50 [1] was 106 nM and the IC50 [2] was 251 nM.

Fc1ccc(-c2nn3c(c2-c2ccc4nccn4c2)CCC3)cc1F [Compound 86, 6-(2-(3,4-Difluorophenyl)-5,6-dihydro-4H-pyrrolo[1,2-b]pyrazol-3-yl)imidazo[1,2-a]pyridine] gave an IC50 [1] of 272 nM and an IC50 [2] of 926 nM.

Fc1ccc(-c2nn3c(c2-c2ccc4ncsc4c2)CCC3)cc1F [Compound 87, 6-(2-(3,4-Difluorophenyl)-5,6-dihydro-4H-pyrrolo[1,2-b]pyrazol-3-yl)benzo[d]thiazole] showed an IC50 [1] of 364 nM and an IC50 [2] of 1010 nM.

For Fc1ccc(-c2nn3c(c2-c2ccc4ncccc4c2)CCC3)cc1F [Compound 88, 6-(2-(3,4-Difluorophenyl)-5,6-dihydro-4H-pyrrolo[1,2-b]pyrazol-3-yl)quinoline], the IC50 [1] was 1060 nM and the IC50 [2] was 9580 nM.

In the case of Fc1ccc(-c2nn3c(c2-c2ccc4nccnc4c2)CCC3)cc1F [Compound 89, 6-(2-(3,4-Difluorophenyl)-5,6-dihydro-4H-pyrrolo[1,2-b]pyrazol-3-yl)quinoxaline], the IC50 [1] is reported as 418 nM and the IC50 [2] is reported as 1620 nM.

c1cc2c(cc1-c1nn3c(c1-c1ccc4[nH]ncc4c1)CCC3)OCO2 [Compound 90, 5-(2-(Benzo[d][1,3]dioxol-5-yl)-5,6-dihydro-4H-pyrrolo[1,2-b]pyrazol-3-yl)-1H-indazole] gave an IC50 [1] of 776 nM and an IC50 [2] of 4020 nM.

For Fc1ccc(-c2nn3c(c2-c2ccc4[nH]ncc4c2)CCC3)c(F)c1 [Compound 91, 5-(2-(2,4-Difluorophenyl)-5,6-dihydro-4H-pyrrolo[1,2-b]pyrazol-3-yl)-1H-indazole], the IC50 [1] was 262 nM and the IC50 [2] was 840 nM.

Fc1ccc(-c2nn3c(c2-c2ccc4cn[nH]c4c2)CCC3)c(F)c1 [Compound 92, 6-(2-(2,4-Difluorophenyl)-5,6-dihydro-4H-pyrrolo[1,2-b]pyrazol-3-yl)-1H-indazole] showed an IC50 [1] of 228 nM and an IC50 [2] of 1100 nM.

Cn1cnc2ccc(-c3c(-c4ccc(F)cc4F)nn4c3CCC4)cc21 [Compound 93, 6-(2-(2,4-Difluorophenyl)-5,6-dihydro-4H-pyrrolo[1,2-b]pyrazol-3-yl)-1-methyl-1H-benzo[d]imidazole] showed an IC50 [1] of 77.2 nM and an IC50 [2] of 319 nM.

Fc1ccc(-c2nn3c(c2-c2ccc4nccn4c2)CCC3)c(F)c1 [Compound 94, 6-(2-(2,4-Difluorophenyl)-5,6-dihydro-4H-pyrrolo[1,2-b]pyrazol-3-yl)imidazo[1,2-a]pyridine] was tested, and the IC50 [1] was 77 nM and the IC50 [2] was 482 nM.

In the case of Fc1ccc(-c2nn3c(c2-c2ccc4ncccc4c2)CCC3)c(F)c1 [Compound 95, 6-(2-(2,4-Difluorophenyl)-5,6-dihydro-4H-pyrrolo[1,2-b]pyrazol-3-yl)quinoline], the IC50 [1] is reported as 559 nM and the IC50 [2] is reported as 3740 nM.

Fc1ccc(-c2nn3c(c2-c2ccc4nccnc4c2)CCC3)c(F)c1 [Compound 96, 6-(2-(2,4-Difluorophenyl)-5,6-dihydro-4H-pyrrolo[1,2-b]pyrazol-3-yl)quinoxaline] was tested, and the IC50 [1] was 156 nM and the IC50 [2] was 668 nM.

Compound Fc1ccc(-c2nn3c(c2-c2ccc4ncsc4c2)CCC3)c(F)c1 [Compound 97, 6-(2-(2,4-Difluorophenyl)-5,6-dihydro-4H-pyrrolo[1,2-b]pyrazol-3-yl)benzo[d]thiazole] has an IC50 [1] of 26.2 nM and an IC50 [2] of 116 nM.

For COc1ccc(-c2nn3c(c2-c2ccc4[nH]ncc4c2)CCC3)cc1 [Compound 98, 5-(2-(4-Methoxyphenyl)-5,6-dihydro-4H-pyrrolo[1,2-b]pyrazol-3-yl)-1H-indazole], the IC50 [1] was 295 nM and the IC50 [2] was 984 nM.

Compound COc1ccc(-c2nn3c(c2-c2ccc4cn[nH]c4c2)CCC3)cc1 [Compound 99, 6-(2-(4-Methoxyphenyl)-5,6-dihydro-4H-pyrrolo[1,2-b]pyrazol-3-yl)-1H-indazole] has an IC50 [1] of 322 nM and an IC50 [2] of 1650 nM.

In the case of COc1ccc(-c2nn3c(c2-c2ccc4ncsc4c2)CCC3)cc1 [Compound 100, 6-(2-(4-Methoxyphenyl)-5,6-dihydro-4H-pyrrolo[1,2-b]pyrazol-3-yl)benzo[d]thiazole], the IC50 [1] is reported as 699 nM and the IC50 [2] is reported as 3740 nM.

COc1ccc(-c2nn3c(c2-c2ccc4nccnc4c2)CCC3)cc1 [Compound 102, 6-(2-(4-Methoxyphenyl)-5,6-dihydro-4H-pyrrolo[1,2-b]pyrazol-3-yl)quinoxaline] was tested, and the IC50 [1] was 685 nM and the IC50 [2] was 4180 nM.

Work on Fc1ccc(-c2nn3c(c2-c2ccc4ncnn4c2)CCC3)cc1 [Compound 103, 6-(2-(4-Fluorophenyl)-5,6-dihydro-4H-pyrrolo[1,2-b]pyrazol-3-yl)-[1,2,4]triazolo[1,5-a]pyridine] yielded an IC50 [1] of 131 nM and an IC50 [2] of 520 nM.

For Cc1cccc(-c2nn3c(c2-c2ccc4ncnn4c2)CCC3)c1 [Compound 104, 6-(2-(m-Tolyl)-5,6-dihydro-4H-pyrrolo[1,2-b]pyrazol-3-yl)-[1,2,4]triazolo[1,5-a]pyridine], the IC50 [1] was 26.6 nM and the IC50 [2] was 83 nM.

Cc1cc(-c2nn3c(c2-c2ccc4ncnn4c2)CCC3)ccc1F [Compound 105, 6-(2-(4-Fluoro-3-methylphenyl)-5,6-dihydro-4H-pyrrolo[1,2-b]pyrazol-3-yl)-[1,2,4]triazolo[1,5-a]pyridine] showed an IC50 [1] of 34 nM and an IC50 [2] of 112 nM.

In the case of COc1cccc(-c2nn3c(c2-c2ccc4ncnn4c2)CCC3)c1 [Compound 106, 6-(2-(3-Methoxyphenyl)-5,6-dihydro-4H-pyrrolo[1,2-b]pyrazol-3-yl)-[1,2,4]triazolo[1,5-a]pyridine], the IC50 [1] is reported as 159 nM and the IC50 [2] is reported as 600 nM.

For Clc1cccc(-c2nn3c(c2-c2ccc4ncnn4c2)CCC3)c1 [Compound 107, 6-(2-(3-Chlorophenyl)-5,6-dihydro-4H-pyrrolo[1,2-b]pyrazol-3-yl)-[1,2,4]triazolo[1,5-a]pyridine], the IC50 [1] was 34.7 nM and the IC50 [2] was 152 nM.

FC(F)(F)c1cccc(-c2nn3c(c2-c2ccc4ncnn4c2)CCC3)c1 [Compound 108, 6-(2-(3-Trifluoromethylphenyl)-5,6-dihydro-4H-pyrrolo[1,2-b]pyrazol-3-yl)-[1,2,4]triazolo[1,5-a]pyridine] gave an IC50 [1] of 39.8 nM and an IC50 [2] of 159 nM.

For Fc1cccc(-c2nn3c(c2-c2ccc4ncnn4c2)CCC3)c1 [Compound 109, 6-(2-(3-Fluorophenyl)-5,6-dihydro-4H-pyrrolo[1,2-b]pyrazol-3-yl)-[1,2,4]triazolo[1,5-a]pyridine], the IC50 [1] was 132 nM and the IC50 [2] was 927 nM.

Compound Fc1ccc(-c2nn3c(c2-c2ccc4ncnn4c2)CCC3)cc1F [Compound 110, 6-(2-(3,4-Difluorophenyl)-5,6-dihydro-4H-pyrrolo[1,2-b]pyrazol-3-yl)-[1,2,4]triazolo[1,5-a]pyridine] has an IC50 [1] of 126 nM and an IC50 [2] of 584 nM.

With Fc1ccc(-c2nn3c(c2-c2ccc4ncnn4c2)CCC3)c(F)c1 [Compound 111, 6-(2-(2,4-Difluorophenyl)-5,6-dihydro-4H-pyrrolo[1,2-b]pyrazol-3-yl)-[1,2,4]triazolo[1,5-a]pyridine] the IC50 [1] was 61.3 nM and the IC50 [2] was 231 nM.

In the case of Fc1cc(F)c(-c2nn3c(c2-c2ccc4[nH]ncc4c2)CCC3)cc1F [Compound 112, 5-(2-(2,4,5-Trifluorophenyl)-5,6-dihydro-4H-pyrrolo[1,2-b]pyrazol-3-yl)-1H-indazole], the IC50 [1] is reported as 137 nM and the IC50 [2] is reported as 816 nM.
